Legend:
[1] = biological target: T1, Tel1 (Saccharomyces cerevisiae, UniProt P38110); experiment: cryo-EM structure; assay type: binding; conditions: 3.7-3.9 A resolution; 1 mM AMP-PNP, 4 mM Mg(OAc)2, pH 7.4, on ice; kinase active site, one Mg2+ modelled, 1 ligand per monomer
T1 construct: full-length 2787 residues, homodimer; expressed as GST-Tel1 (pBL602, Gal promoter) in S. cerevisiae PY265

[2] = biological target: Saccharomyces cerevisiae Tel1 (Saccharomyces cerevisiae) (UniProt P38110); experiment: cryo-EM structure; Tel1 100 nM with 1 mM AMP-PNP and 4 mM Mg(OAc)2, diluted into 50 mM Tris-HCl, 50 mM NaCl, pH 7.4; C2 symmetry applied; homodimer

T1 sequence (P38110 whole entry): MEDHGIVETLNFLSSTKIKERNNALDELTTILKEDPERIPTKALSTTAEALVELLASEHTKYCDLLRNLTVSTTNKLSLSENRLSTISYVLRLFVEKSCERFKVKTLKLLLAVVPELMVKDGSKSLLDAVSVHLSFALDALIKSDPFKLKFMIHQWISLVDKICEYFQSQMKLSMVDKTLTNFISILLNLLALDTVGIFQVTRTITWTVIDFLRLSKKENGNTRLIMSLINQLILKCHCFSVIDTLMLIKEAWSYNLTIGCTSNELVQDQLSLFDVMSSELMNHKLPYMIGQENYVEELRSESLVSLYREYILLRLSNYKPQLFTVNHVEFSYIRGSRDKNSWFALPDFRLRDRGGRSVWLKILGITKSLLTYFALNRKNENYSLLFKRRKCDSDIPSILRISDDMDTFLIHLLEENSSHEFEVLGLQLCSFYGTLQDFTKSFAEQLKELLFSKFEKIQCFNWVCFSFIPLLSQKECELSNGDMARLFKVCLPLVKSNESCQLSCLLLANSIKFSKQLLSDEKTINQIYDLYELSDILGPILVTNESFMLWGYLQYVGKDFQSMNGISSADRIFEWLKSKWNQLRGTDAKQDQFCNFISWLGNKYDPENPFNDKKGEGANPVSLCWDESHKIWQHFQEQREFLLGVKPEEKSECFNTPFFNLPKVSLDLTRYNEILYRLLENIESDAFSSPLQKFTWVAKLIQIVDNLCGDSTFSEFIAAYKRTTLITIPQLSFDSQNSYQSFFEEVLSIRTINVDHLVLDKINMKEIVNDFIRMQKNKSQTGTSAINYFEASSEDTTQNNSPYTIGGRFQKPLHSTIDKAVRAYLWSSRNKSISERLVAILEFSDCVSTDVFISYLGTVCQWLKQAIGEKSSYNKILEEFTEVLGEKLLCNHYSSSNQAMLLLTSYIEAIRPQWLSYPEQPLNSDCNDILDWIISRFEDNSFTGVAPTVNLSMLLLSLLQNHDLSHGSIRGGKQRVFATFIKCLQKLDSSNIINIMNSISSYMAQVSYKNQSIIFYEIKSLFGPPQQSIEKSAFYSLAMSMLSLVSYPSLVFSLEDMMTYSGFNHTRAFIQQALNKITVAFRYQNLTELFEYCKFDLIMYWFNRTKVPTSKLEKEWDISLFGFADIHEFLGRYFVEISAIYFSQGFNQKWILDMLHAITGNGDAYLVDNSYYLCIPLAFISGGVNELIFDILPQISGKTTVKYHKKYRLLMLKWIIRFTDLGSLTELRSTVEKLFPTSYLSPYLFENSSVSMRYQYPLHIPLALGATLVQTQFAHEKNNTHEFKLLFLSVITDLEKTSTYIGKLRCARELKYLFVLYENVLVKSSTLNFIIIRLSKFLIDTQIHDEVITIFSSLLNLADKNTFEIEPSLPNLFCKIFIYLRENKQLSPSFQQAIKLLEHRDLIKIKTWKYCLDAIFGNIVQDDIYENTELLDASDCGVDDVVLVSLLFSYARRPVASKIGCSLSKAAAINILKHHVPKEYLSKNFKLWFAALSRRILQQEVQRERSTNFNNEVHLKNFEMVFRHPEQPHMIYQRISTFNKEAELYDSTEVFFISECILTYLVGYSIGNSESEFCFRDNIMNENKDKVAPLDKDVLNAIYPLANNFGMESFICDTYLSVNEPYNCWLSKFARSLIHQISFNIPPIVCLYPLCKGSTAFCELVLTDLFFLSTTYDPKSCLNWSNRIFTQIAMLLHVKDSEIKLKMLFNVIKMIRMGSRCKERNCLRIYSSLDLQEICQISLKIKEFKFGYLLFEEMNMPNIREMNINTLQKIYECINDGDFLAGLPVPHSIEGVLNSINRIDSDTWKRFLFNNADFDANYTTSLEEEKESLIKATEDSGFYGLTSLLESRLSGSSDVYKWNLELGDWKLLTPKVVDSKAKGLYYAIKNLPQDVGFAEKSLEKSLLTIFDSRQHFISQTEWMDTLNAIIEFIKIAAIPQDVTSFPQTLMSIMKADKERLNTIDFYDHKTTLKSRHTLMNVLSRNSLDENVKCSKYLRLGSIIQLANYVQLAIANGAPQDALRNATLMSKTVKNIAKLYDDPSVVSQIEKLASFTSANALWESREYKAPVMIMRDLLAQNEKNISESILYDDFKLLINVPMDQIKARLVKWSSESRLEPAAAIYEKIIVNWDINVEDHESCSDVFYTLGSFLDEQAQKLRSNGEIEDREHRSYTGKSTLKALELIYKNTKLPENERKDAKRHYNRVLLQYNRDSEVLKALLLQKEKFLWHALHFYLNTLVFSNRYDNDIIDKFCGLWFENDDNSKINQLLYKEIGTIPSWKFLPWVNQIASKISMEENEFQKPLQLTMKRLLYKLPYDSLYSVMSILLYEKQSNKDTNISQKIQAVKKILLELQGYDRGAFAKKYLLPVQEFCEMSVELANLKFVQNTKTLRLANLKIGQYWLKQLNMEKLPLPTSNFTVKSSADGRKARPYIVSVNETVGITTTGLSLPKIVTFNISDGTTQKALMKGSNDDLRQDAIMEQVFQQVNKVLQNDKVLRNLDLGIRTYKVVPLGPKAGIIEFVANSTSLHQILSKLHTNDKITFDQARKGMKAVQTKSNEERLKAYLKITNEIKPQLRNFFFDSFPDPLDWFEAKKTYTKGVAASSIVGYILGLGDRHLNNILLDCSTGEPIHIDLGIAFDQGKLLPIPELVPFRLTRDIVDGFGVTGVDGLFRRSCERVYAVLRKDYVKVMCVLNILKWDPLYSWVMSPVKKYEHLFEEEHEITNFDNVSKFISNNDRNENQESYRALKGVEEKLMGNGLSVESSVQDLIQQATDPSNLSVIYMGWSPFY

stoichiometry N [2] | Compound | cryo-EM structure [1]
 | Nc1ncnc2c1ncn2[C@@H]1O[C@H](COP(=O)(O)OP(=O)(O)NP(=O)(O)O)[C@@H](O)[C@H]1O [AMP-PNP] | clear density for AMP-PNP
2 | Saccharomyces cerevisiae Tel1, P38110 1-2787 | 

Reference: PMC6945111, “Cryo-EM Structure of Nucleotide-Bound Tel1^ATM Unravels the Molecular Basis of Inhibition and Structural Rationale for Disease-Associated Mutations” (Structure(London, England:1993), 2020)
